Read-outs that look alike come from different tables or passages of the source.
Assays:
AmpC = AmpC (UniProt P24735); test: Inhibitory activity on SBL, fluorescent substrate FC-5; details: read-out: Inhibitory activity on SBL AmpC (IC50 class)
VIM-1 = VIM-1 (Pseudomonas aeruginosa, UniProt A0A0F7KYQ8); test: Inhibitory activity on MBL, fluorescent substrate FC-5; format: biochemical
NDM-1 = NDM-1 (Klebsiella pneumoniae, UniProt C7C422); test: as above; format: biochemical
KPC-2 = KPC-2 (Klebsiella pneumoniae, UniProt Q9F663); test: Inhibitory activity on SBL, fluorescent substrate FC-5; format: biochemical; details: for IC50: read-out: Inhibitory activity on SBL KPC-2 (IC50 class)
Sequence of KPC-2 (Q9F663 25-293 limits assumed): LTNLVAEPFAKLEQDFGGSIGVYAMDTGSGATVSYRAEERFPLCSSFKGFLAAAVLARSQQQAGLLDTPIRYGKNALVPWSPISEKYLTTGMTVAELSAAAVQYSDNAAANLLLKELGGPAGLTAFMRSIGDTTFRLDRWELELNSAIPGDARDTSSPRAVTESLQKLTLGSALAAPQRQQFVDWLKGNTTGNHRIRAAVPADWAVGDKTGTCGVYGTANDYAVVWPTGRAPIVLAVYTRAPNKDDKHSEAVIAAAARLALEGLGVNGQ

NDM-5 = NDM-5 (Klebsiella pneumoniae, UniProt C7C422, M154L/V88L); test: Inhibitory activity on MBL, fluorescent substrate FC-5; format: biochemical
Sequence of NDM-5 (C7C422 29-270 V88L/M154L): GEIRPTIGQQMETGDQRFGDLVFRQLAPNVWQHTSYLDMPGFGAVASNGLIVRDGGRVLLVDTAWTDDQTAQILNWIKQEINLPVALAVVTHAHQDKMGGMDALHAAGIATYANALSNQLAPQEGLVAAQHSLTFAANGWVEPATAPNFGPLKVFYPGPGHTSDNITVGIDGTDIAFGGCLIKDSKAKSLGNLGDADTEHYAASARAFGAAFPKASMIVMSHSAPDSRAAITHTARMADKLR

IMP-1 = IMP-1 (Serratia marcescens, UniProt P52699); test: as above; format: biochemical
Sequence of IMP-1 (P52699 19-246 limits assumed): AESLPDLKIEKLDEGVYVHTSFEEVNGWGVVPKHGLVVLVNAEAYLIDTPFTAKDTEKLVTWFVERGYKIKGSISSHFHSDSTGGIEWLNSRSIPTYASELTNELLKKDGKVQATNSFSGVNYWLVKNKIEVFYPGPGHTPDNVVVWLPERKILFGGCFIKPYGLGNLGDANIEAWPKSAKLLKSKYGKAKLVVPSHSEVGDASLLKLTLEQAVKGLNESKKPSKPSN

OXA-48 = OXA-48 (Klebsiella pneumoniae, UniProt Q6XEC0); test: Inhibitory activity on SBL, fluorescent substrate FC-5; format: biochemical; details: for IC50: read-out: Inhibitory activity on SBL OXA-48 (IC50 class)
Sequence of OXA-48 (Q6XEC0 23-265 limits assumed): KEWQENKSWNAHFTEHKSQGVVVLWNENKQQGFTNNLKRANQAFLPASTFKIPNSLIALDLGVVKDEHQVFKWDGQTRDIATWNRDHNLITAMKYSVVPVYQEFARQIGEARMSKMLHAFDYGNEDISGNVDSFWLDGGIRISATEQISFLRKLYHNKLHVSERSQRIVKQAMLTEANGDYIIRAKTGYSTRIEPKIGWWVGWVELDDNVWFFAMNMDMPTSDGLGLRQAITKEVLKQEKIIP

VIM-2 = VIM-2 (Escherichia coli, UniProt Q5U7L7); test: Inhibitory activity on MBL, fluorescent substrate FC-5; format: biochemical; details: read-out: Inhibitory activity on MBL VIM-2 (IC50 class)
CTX-M-14 = CTX-M-14 (Escherichia coli, UniProt Q9L5C7); test: Inhibitory activity on SBL, fluorescent substrate FC-5; format: biochemical; details: for IC50: read-out: Inhibitory activity on SBL CTX-M-14 (IC50 class)
Sequence of CTX-M-14 (Q9L5C7 entry or part of it): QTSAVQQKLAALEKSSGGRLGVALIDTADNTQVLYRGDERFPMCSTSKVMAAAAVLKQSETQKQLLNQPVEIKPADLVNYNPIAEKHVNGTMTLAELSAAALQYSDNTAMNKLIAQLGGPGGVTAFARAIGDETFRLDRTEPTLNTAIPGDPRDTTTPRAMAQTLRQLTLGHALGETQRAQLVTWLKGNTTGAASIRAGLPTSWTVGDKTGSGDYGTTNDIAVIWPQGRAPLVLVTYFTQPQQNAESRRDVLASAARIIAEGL

TEM-1 = TEM-1 (Escherichia coli, UniProt P62593); test: as above; format: biochemical; details: for IC50: read-out: Inhibitory activity on SBL TEM-1 (IC50 class)
Sequence of TEM-1 (P62593 24-286 limits assumed): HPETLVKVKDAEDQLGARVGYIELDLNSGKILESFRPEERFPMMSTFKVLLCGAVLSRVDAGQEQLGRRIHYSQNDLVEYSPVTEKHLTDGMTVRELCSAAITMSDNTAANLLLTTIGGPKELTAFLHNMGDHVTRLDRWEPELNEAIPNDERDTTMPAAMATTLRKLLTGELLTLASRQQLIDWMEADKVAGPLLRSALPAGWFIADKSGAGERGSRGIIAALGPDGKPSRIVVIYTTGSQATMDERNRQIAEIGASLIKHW

SHV-12 = molecular target: T1, SHV-12 (UniProt P0AD64, L31Q/G234S/E235K, species not given); test: as above; format: biochemical; details: for inhibitory activity on SHV-12 compared to control drugs: comparison in words; for IC50: read-out: Inhibitory activity on SBL SHV-12 (IC50 class)
T1 sequence (P0AD64 1-286 L31Q/G234S/E235K): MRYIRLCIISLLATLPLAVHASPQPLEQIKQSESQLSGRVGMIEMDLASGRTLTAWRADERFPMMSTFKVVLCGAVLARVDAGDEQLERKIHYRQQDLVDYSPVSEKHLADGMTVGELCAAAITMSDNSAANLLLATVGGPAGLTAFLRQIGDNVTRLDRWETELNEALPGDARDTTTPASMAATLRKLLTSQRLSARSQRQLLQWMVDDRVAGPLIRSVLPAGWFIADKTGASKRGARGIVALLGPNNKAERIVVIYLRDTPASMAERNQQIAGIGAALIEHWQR

[1] = VIM-1 and/or VIM-2, read-out: inhibitory activity at a nanomolar-level on VIM-1 and/or VIM-2
[2] = read-out: Inhibitory activity on MBL VIM-1 (IC50 class)
[3] = read-out: Inhibitory activity on MBL NDM-1 (IC50 class)
[4] = read-out: inhibitory activity at a nanomolar-level on NDM-1
[5] = read-out: Inhibitory activity on MBL NDM-5 (IC50 class)
[6] = read-out: inhibitory activity at a nanomolar-level on NDM-5
[7] = read-out: Inhibitory activity on MBL IMP-1 (IC50 class)
[8] = IMP-1 and/or IMP-4, read-out: inhibitory activity at a nanomolar-level on IMP-1 and/or IMP-4

Sequence of NDM-1 (C7C422 29-270 limits assumed): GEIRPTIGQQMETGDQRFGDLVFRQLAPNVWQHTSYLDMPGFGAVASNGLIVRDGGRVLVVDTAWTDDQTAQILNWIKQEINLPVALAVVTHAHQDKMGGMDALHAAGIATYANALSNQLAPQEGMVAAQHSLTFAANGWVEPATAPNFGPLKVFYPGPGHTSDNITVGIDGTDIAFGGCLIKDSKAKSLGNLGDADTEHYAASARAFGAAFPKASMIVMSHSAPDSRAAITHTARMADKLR

SMILES | IC50 (AmpC) [nM] | IC50 (VIM-1; [1]) [nM] | IC50 (VIM-1; [2]) [nM] | IC50 (NDM-1; [3]) [nM] | IC50 (NDM-1; [4]) [nM] | IC50 (KPC-2) [nM] | IC50 (NDM-5; [5]) [nM] | IC50 (NDM-5; [6]) [nM] | IC50 (IMP-1; [7]) [nM] | IC50 (OXA-48) [nM] | IC50 (VIM-2) [nM] | IC50 (CTX-M-14) [nM] | IC50 (TEM-1) [nM] | IC50 (IMP-1; [8]) [nM] | inhibitory activity on KPC-2 compared to avibactam (KPC-2; comparison in words) | inhibitory activity on OXA-48 compared to avibactam (OXA-48; comparison in words) | inhibitory activity on SHV-12 compared to control drugs (SHV-12) | IC50 (SHV-12) [nM] | inhibitory activity on CTX-M-14 compared to avibactam (CTX-M-14; comparison in words) | inhibitory activity on TEM-1 compared to avibactam (TEM-1; comparison in words)
N=C(N)NCCc1cn(Cc2ccc3c(c2C(=O)O)OB(O)CC3)nn1 [Compound 10] | > 100000 | < 1000 | 1000 to 100000 | 10 to 1000 | < 1000 | < 10 | 10 to 1000 | < 1000 | 1000 to 100000 | < 10 | 10 to 1000 | 10 to 1000 | 10 to 1000 | – | – | – | – | – | – | –
NCCCc1cn(Cc2ccc3c(c2C(=O)O)OB(O)CC3)nn1 [Compound 9] | > 100000 | < 1000 | 1000 to 100000 | 1000 to 100000 | – | < 10 | 10 to 1000 | – | 1000 to 100000 | < 10 | 10 to 1000 | 10 to 1000 | 10 to 1000 | – | – | – | – | – | – | –
N=C(N)N1CC(c2cn(Cc3ccc4c(c3C(=O)O)OB(O)CC4)nn2)C1 [Compound 49] | 1000 to 100000 | – | 1000 to 100000 | 10 to 1000 | < 1000 | < 10 | 10 to 1000 | < 1000 | 10 to 1000 | 10 to 1000 | 10 to 1000 | 10 to 1000 | 10 to 1000 | < 1000 | – | – | – | – | – | –
O=C(O)c1c(Cn2ccc3cncnc32)ccc2c1OB(O)CC2 [Compound 55] | 1000 to 100000 | – | 1000 to 100000 | 10 to 1000 | < 1000 | < 10 | 10 to 1000 | < 1000 | 10 to 1000 | 10 to 1000 | 10 to 1000 | < 10 | < 10 | < 1000 | – | – | – | – | – | –
O=C(O)c1c(Cn2cc(-c3ccccc3)nn2)ccc2c1OB(O)CC2 [Compound 12] | > 100000 | < 1000 | 1000 to 100000 | 10 to 1000 | < 1000 | < 10 | 10 to 1000 | < 1000 | 1000 to 100000 | < 10 | 10 to 1000 | 10 to 1000 | 10 to 1000 | – | – | – | – | – | – | –
O=C(O)c1c(Cn2ncc3ccccc32)ccc2c1OB(O)CC2 [Compound 22] | 1000 to 100000 | < 1000 | 10 to 1000 | 10 to 1000 | < 1000 | < 10 | 10 to 1000 | < 1000 | 10 to 1000 | < 10 | 10 to 1000 | 10 to 1000 | 10 to 1000 | < 1000 | – | – | – | – | – | –
N=C(N)N1Cc2cnn(Cc3ccc4c(c3C(=O)O)OB(O)CC4)c2C1 [Compound 67] | > 100000 | – | 1000 to 100000 | 10 to 1000 | – | < 10 | 1000 to 100000 | – | 1000 to 100000 | < 10 | 10 to 1000 | 10 to 1000 | 10 to 1000 | – | – | – | – | – | – | –
NC1CCC(c2cn(Cc3ccc4c(c3C(=O)O)OB(O)CC4)nn2)CC1 (stereo not shown) [Compound 11] | > 100000 | < 1000 | 1000 to 100000 | 10 to 1000 | < 1000 | < 10 | 10 to 1000 | < 1000 | 1000 to 100000 | < 10 | 10 to 1000 | 10 to 1000 | 10 to 1000 | – | – | – | – | – | – | –
NCCc1ccc(-c2cn(Cc3ccc4c(c3C(=O)O)OB(O)CC4)nn2)cc1 [Compound 65] | 1000 to 100000 | – | – | – | – | < 10 | – | – | – | – | – | – | – | – | – | – | – | – | – | –
NCCN1Cc2cn(Cc3ccc4c(c3C(=O)O)OB(O)CC4)nc2C1 [Compound 70] | – | < 1000 | 10 to 1000 | 10 to 1000 | < 1000 | < 10 | 10 to 1000 | < 1000 | 10 to 1000 | 10 to 1000 | 10 to 1000 | 10 to 1000 | < 10 | < 1000 | better or comparable | better or comparable | comparable to avibactam and tazobactam and superior to taniborbactam | < 10 | better or comparable | better or comparable
O=C(O)c1c(Cn2cc(C(F)(F)F)cn2)ccc2c1OB(O)CC2 [Compound 16] | – | < 1000 | 1000 to 100000 | 10 to 1000 | < 1000 | < 10 | 10 to 1000 | < 1000 | 1000 to 100000 | < 10 | 10 to 1000 | < 10 | 10 to 1000 | – | – | – | – | 10 to 1000 | – | –
N#Cc1ccn(Cc2ccc3c(c2C(=O)O)OB(O)CC3)c1 [Compound 71] | – | < 1000 | 10 to 1000 | 10 to 1000 | < 1000 | < 10 | 10 to 1000 | < 1000 | 10 to 1000 | 10 to 1000 | 10 to 1000 | 10 to 1000 | < 10 | – | – | – | comparable to avibactam and tazobactam and superior to taniborbactam | < 10 | – | –
NS(=O)(=O)NCc1cnn(Cc2ccc3c(c2C(=O)O)OB(O)CC3)c1 [Compound 36] | – | – | 1000 to 100000 | 10 to 1000 | < 1000 | < 10 | 10 to 1000 | < 1000 | 1000 to 100000 | < 10 | 10 to 1000 | 10 to 1000 | < 10 | – | – | – | – | 10 to 1000 | – | –
NC1(c2cnn(Cc3ccc4c(c3C(=O)O)OB(O)CC4)c2)CC1 [Compound 40] | – | – | 1000 to 100000 | 1000 to 100000 | – | < 10 | 10 to 1000 | – | 1000 to 100000 | 10 to 1000 | 10 to 1000 | 10 to 1000 | < 10 | – | – | – | – | 10 to 1000 | – | –
NCCNCc1cnn(Cc2ccc3c(c2C(=O)O)OB(O)CC3)c1 [Compound 35] | – | – | 1000 to 100000 | 1000 to 100000 | – | 10 to 1000 | 10 to 1000 | – | 1000 to 100000 | < 10 | 10 to 1000 | 10 to 1000 | < 10 | – | – | – | – | 10 to 1000 | – | –
O=C(O)c1c(Cn2cc3c(n2)CNC3)ccc2c1OB(O)[C@H]1C[C@@H]21 [Compound 54] | – | – | 1000 to 100000 | 10 to 1000 | < 1000 | 10 to 1000 | 10 to 1000 | < 1000 | 1000 to 100000 | 10 to 1000 | 10 to 1000 | 10 to 1000 | 1000 to 100000 | – | – | – | – | 10 to 1000 | – | –
N#CCCCc1cn(Cc2ccc3c(c2C(=O)O)OB(O)CC3)nn1 [Compound 6] | – | < 1000 | 1000 to 100000 | 1000 to 100000 | – | < 10 | 10 to 1000 | – | 1000 to 100000 | 10 to 1000 | 10 to 1000 | 10 to 1000 | 10 to 1000 | – | – | – | – | 10 to 1000 | – | –
N=C(N)NCCc1cnn(Cc2ccc3c(c2C(=O)O)OB(O)CC3)c1 [Compound 50] | – | – | 1000 to 100000 | 1000 to 100000 | – | < 10 | 10 to 1000 | – | 1000 to 100000 | 10 to 1000 | 1000 to 100000 | 10 to 1000 | 10 to 1000 | – | – | – | – | 10 to 1000 | – | –
N=C(N)NCCCc1cn(Cc2ccc3c(c2C(=O)O)OB(O)CC3)nn1 [Compound 48] | – | – | 1000 to 100000 | 1000 to 100000 | – | < 10 | 10 to 1000 | – | 1000 to 100000 | 10 to 1000 | 10 to 1000 | 10 to 1000 | 10 to 1000 | – | – | – | – | 10 to 1000 | – | –

From patent publication US20250205259A1, “CLASS OF 7-((FIVE-MEMBERED HETEROCYCLIC)METHYL)-8-CARBOXYLIC ACID-BENZO CYCLIC BORATE DERIVATIVES AND USES THEREOF” (priority 2022, published 2025)
